Test results as given in patent publication US6747125B1, “Peptides intermediates for making GnRH antagonists” (The Salk Institute for Biological Studies, priority 1991, dated 2004).

Key:
ovulation in female rats = experiment: in vivo testing of effectiveness to prevent ovulation in female rats; design: species or system Sprague-Dawley rats; details: injected at about noon on the day of proestrus, rats ovulating/rats treated
Experimental: The in vivo testing determines effectiveness to prevent ovulation in female rats. In this test, a specified number of mature female Sprague-Dawley rats, e.g. five to ten, each having a body weight from 225 to 250 grams, is injected with a specified microgram dosage of peptide in either saline, bacteriostatic water, polyethylene glycol, corn oil or mixtures of the above with ethanol at about noon on the day of proestrus. Proestrus is the afternoon […]. A separate female rat group is used as a control to which the peptide is not administered. Each of the control female rats ovulates on the evening of proestrus; of the rats treated, the number of them which ovulate is recorded. Each of the peptides is considered to be totally effective to prevent ovulation of female rats at a dose of about 500 micrograms.

[1] = test system: LH levels in the bloodstream; experiment: suppression of circulating LH in castrate male rats after single IV bolus; assay type: in vivo, Sprague-Dawley rats
Source text: In addition to the in vivo testing, mentioned above, to determine effectiveness to prevent ovulation in female rats, groups of about 6 adult castrate male Sprague-Dawley rats, each having a body weight from 225 to 250 grams, are each injected IV with a 50 microgram dosage of either Peptide No. 103A or a standard antagonist referred to as the Nal-Glu antagonist (see J. Clin. Edno. Metab., 71, 4, 881-888 (1990)) in either corn oil or a phosphate buffer in the presence of BSA (bovine serum albumin). A separate rat group is used as a control, to which only the carrier is administered. Each of the control rats and the rats being treated are monitored for LH levels in the bloodstream at about 3 hours, 24 hours, 36 hours and 48 hours following this single bolus injection.

In the case of “Ac-β-D-2NAL-(4Cl)D-Phe-D-3PAL-Ser-Aph(3-amino 1,2,4 triazole)-D-Aph(3-amino 1,2,4 triazole)-Leu-Lys(isopropyl)-Pro-D-Ala-NH2 [Peptide 103A]”, the “Rats Ovulating” value (ovulation in female rats; dosage 0.5 micrograms) is reported as 7/8, the “Rats Ovulating” value (ovulation in female rats; dosage 1.0 micrograms) is reported as 0/7 and the “Rats Ovulating” value (ovulation in female rats; dosage 2.5 micrograms) is reported as 0/8. The “level of circulating LH in the bloodstream relative to Nal-Glu antagonist” value ([1]; 50 microgram IV, after 12 hours) was “below that of the rats treated with the Nal-Glu antagonist”, the “level of circulating LH in the bloodstream relative to control” value ([1]; 50 microgram IV, monitored at about 3, 24, 36 and 48 hours) was “very substantially below that of the control” and the “duration of biological effect (LH suppression)” value ([1]; single 50 microgram IV bolus injection) was “very long-acting”.

With “Ac-β-D-2NAL-(4Cl)D-Phe-D-3PAL-Ser-Lys (isopropyl cyanoguanidino)-D-Lys(isopropyl cyanoguanidino)-Leu-Lys(isopropyl)-Pro-D-Ala-NH2 [Peptide 1]” the “Rats Ovulating” value (ovulation in female rats; dosage 1.0 micrograms) was 0/5 and the “Rats Ovulating” value (ovulation in female rats; dosage 2.5 micrograms) was 0/9.
